We go through 34 compounds from patent US7163952B2, “Azole compound and medicinal use thereof” (Japan Tobacco Inc., priority 2001, dated 2007).

Where a name gives a salt, the structure may show the parent alone.

On to `O=C(O)c1ccc(N(CCC2CCCCC2)c2nc(-c3nc4cc(OCc5ccc(Cl)c(Cl)c5)ccc4[nH]3)cs2)cc1` (as salt: hydrochloride) [Example 185, 4-(N-(2-cyclohexylethyl)-N-(4-(5-(3,4-dichlorobenzyloxy)-2-benzoimidazolyl)-2-thiazolyl)amino)benzoic acid hydrochloride], for which the melting point (in general, the temperature, or range, at which the solid turns liquid) lay within 173 to 176 °C.
As for `CN(c1ccc(C(=O)O)cc1)c1nc(-c2cccc(OCc3ccc(C4CCCCC4)cc3)c2)cs1` [Example 139, 4-(N-(4-(3-(4-cyclohexylbenzyloxy)phenyl)-2-thiazolyl)-N-methylamino)benzoic acid], the melting point was 250 °C (dec.).
In turn, `CN(Cc1ccc(C(F)(F)F)cc1)c1ccc(-c2csc(N(C)c3ccc(C(=O)O)cc3)n2)cc1` [Example 137, 4-(N-methyl-N-(4-(4-(N-methyl-N-(4-trifluoromethylbenzyl)amino)phenyl)-2-thiazolyl)amino)benzoic acid] returned a melting point of 218 to 220 °C.
`CN(Cc1ccc(C(=O)OCC(=O)OC(C)(C)C)cc1)c1nc(-c2ccc(OCc3ccc(C4CCCCC4)cc3)cc2)cs1` [Example 267, tert-butoxycarbonylmethyl 4-((N-(4-(4-(4-cyclohexylbenzyloxy)phenyl)-2-thiazolyl)-N-methylamino)methyl)benzoate] had a melting point of 122 to 123 °C.
Consider `CCC(CC)c1ccc(CN(C)c2ccc(-c3csc(N(C)Cc4ccc(C(=O)O)cc4)n3)cc2)cc1` [Example 241, 4-((N-(4-(4-(N-(4-(1-ethylpropyl)benzyl)-N-methylamino)phenyl)-2-thiazolyl)-N-methylamino)methyl)benzoic acid], for which the melting point was in the range of 147 to 148 °C.
The same measure for `COc1ccc(OCc2ccccc2)c(-c2csc(N(CCC3CCCCC3)c3ccc(C(=O)O)cc3)n2)c1` [Example 169, 4-(N-(4-(2-benzyloxy-5-methoxyphenyl)-2-thiazolyl)-N-(2-cyclohexylethyl)amino)benzoic acid]: 132 to 137 °C.
In turn, `CC(C)N(Cc1ccc(C(=O)O)cc1)c1nc(-c2ccc(OCc3ccc(C4CCCCC4)cc3)cc2)cs1` [Example 65, 4-((N-(4-(4-(4-cyclohexylbenzyloxy)phenyl)-2-thiazolyl)-N-isopropylamino)methyl)benzoic acid] came in with a melting point of 233 to 234 °C.
For `CC(C)(C)c1ccc(C(=O)Nc2ccc(-c3csc(Nc4ccc(C(=O)O)cc4)n3)cc2)cc1` [Example 5, 4-(4-(4-(4-tert-butylbenzoylamino)phenyl)-2-thiazolylamino)benzoic acid], the melting point is 250 °C (dec.).
With `O=C(O)c1ccc(Nc2nc(-c3ccc(OCc4ccc(C5CCCCC5)cc4)cc3)cs2)c(OCc2ccccc2)c1` [Example 73, 3-benzyloxy-4-(4-(4-(4-cyclohexylbenzyloxy)phenyl)-2-thiazolylamino)benzoic acid], the melting point was 230 °C (dec.).
As to `CC(C)N(c1ccc(C(=O)O)c(Cl)c1)c1nc(-c2ccc(NC(=O)c3ccc(N4CCN(C)CC4)cc3)cc2)cs1` [Example 41, 2-chloro-4-(N-isopropyl-N-(4-(4-(4-(4-methyl-1-piperazinyl)benzoylamino)phenyl)-2-thiazolyl)amino)benzoic acid], the melting point is 220 °C (dec.).
The same measure for `CN(Cc1ccc(C2CCCC(=O)C2)cc1)c1ccc(-c2csc(N(C)Cc3ccc(C(=O)O)cc3)n2)cc1` (stereo not shown) [Example 207, 4-((N-methyl-N-(4-(4-(N-methyl-N-(4-(3-oxocyclohexyl)benzyl)amino)phenyl)-2-thiazolyl)amino)methyl)benzoic acid]: 189 to 191 °C.
For `CC(C)N(Cc1ccc(C(=O)O)cc1)c1nc(-c2cccc(NC(=O)c3ccc(C4CCCCC4)cc3)c2)cs1` [Example 146, 4-((N-(4-(3-(4-cyclohexylbenzoylamino)phenyl)-2-thiazolyl)-N-isopropylamino)methyl)benzoic acid], the melting point is 228 to 230 °C.
On to `O=C(O)c1ccc(Nc2nc(-c3ccc(OCc4ccc(C5CCCCC5)cc4)cc3)cs2)c(OCCC2CCCCC2)c1` [Example 72, 4-(4-(4-(4-cyclohexylbenzyloxy)phenyl)-2-thiazolylamino)-3-(2-cyclohexylethoxy)benzoic acid], for which the melting point was 230 °C (dec.).
With `CN(Cc1ccc(C2CCOCC2)cc1)c1ccc(-c2csc(N(C)Cc3ccc(C(=O)O)cc3)n2)cc1` [Example 210, 4-((N-methyl-N-(4-(4-(N-methyl-N-(4-(tetrahydropyran-4-yl)benzyl)amino)phenyl)-2-thiazolyl)amino)methyl)benzoic acid], the melting point lay within 225 to 227 °C.
Consider `CC(C)N(c1cccc(C(=O)O)c1)c1nc(-c2ccc(NC(=O)c3ccc(N4CCCCC4)cc3)cc2)cs1.Cl`, for which the melting point was 220 °C (dec.).
With `O=C(O)c1ccc(C2(c3nc(-c4ccc(OCc5ccc(Cl)c(Cl)c5)cc4)cs3)CCCCC2)cc1` [Example 93, 4-(1-(4-(4-(3,4-dichlorobenzyloxy)phenyl)-2-thiazolyl)cyclohexyl)benzoic acid] the figure was 168 to 171 °C; with `CC(C)(c1ccc(C(=O)O)cc1)c1nc(-c2ccc(OCc3ccc(-c4ccccc4)cc3)cc2)cs1` [Example 92, 4-(1-(4-(4-(4-biphenylylmethoxy)phenyl)-2-thiazolyl)-1-methylethyl)benzoic acid], 230 °C (dec.).
`CN(Cc1ccc(C2CCCCC2)cc1)c1ccc(-c2csc(N(C)Cc3ccc(C(=O)[O-])cc3)n2)cc1.[K+]` had a melting point of 240 °C.
Regarding `CN(Cc1ccc(C2CCCCC2)cc1)c1ccc(-c2csc(N(C)Cc3ccc(C(=O)O)cc3)n2)cc1.CS(=O)(=O)O`, the melting point fell in the range of 167 to 170 °C.
Take `O=C(O)c1ccc(CN(CC2CCCCC2)c2nc(-c3nc4ccc(OCc5ccccc5)cc4o3)cs2)cc1` [Example 220, 4-((N-(4-(6-benzyloxy-2-benzooxazolyl)-2-thiazolyl)-N-cyclohexylmethylamino)methyl)benzoic acid]: the melting point was in the range of 117 to 119 °C.
In the case of `CC(C)N(c1ccc(C(=O)O)c(Cl)c1)c1nc(-c2ccc(NC(=O)c3ccc(C4CCCCC4)cc3)cc2)cs1` [Example 38, 2-chloro-4-(N-(4-(4-(4-cyclohexylbenzoylamino)phenyl)-2-thiazolyl)-N-isopropylamino)benzoic acid], the melting point is 220 °C (dec.).
`Cc1nc(N(C)Cc2ccc(C3CCCCC3)cc2)sc1-c1csc(N(C)Cc2ccc(C(=O)O)cc2)n1` [Example 227, 4-((N-(2′-(N-(4-cyclohexylbenzyl)-N-methylamino)-4′-methyl-4,5′-bithiazolyl-2-yl)-N-methylamino)methyl)benzoic acid] displayed a melting point of 172 to 173 °C.
Turning to `CC(C)N(c1ccc(C(=O)O)c(Cl)c1)c1nc(-c2ccc(NC(=O)c3ccc(N4CCCCC4)cc3)cc2)cs1.Cl`, the melting point is 220 °C (dec.).
The compound `Cc1oc(=O)oc1COC(=O)c1ccc(CN(C)c2nc(-c3ccc(OCc4ccc(C5CCCCC5)cc4)cc3)cs2)cc1` [Example 273, 5-methyl-2-oxo-1,3-dioxl-4-ylmethyl 4-((N-(4-(4-(4-cyclohexylbenzyloxy)phenyl)-2-thiazolyl)-N-methylamino)methyl)benzoate] gave a melting point of 87 to 92 °C.
With `CN(Cc1ccc(C(=O)OC2OC(=O)c3ccccc32)cc1)c1nc(-c2ccc(OCc3ccc(C4CCCCC4)cc3)cc2)cs1` (stereo not shown) [Example 248, 3-oxo-1,3-dihydroisobenzofuran-1-yl 4-((N-(4-(4-(4-cyclohexylbenzyloxy)phenyl)-2-thiazolyl)-N-methylamino)methyl)benzoate], the melting point is 104 to 105 °C.
As for `CN(Cc1ccc(C2CCCCC2)cc1)c1ccc(-c2csc(N(C)Cc3ccc(C(=O)O)cc3)n2)cn1` [Example 226, 4-((N-(4-(6-(N-(4-cyclohexylbenzyl)-N-methylamino)-3-pyridyl)-2-thiazolyl)-N-methylamino)methyl)benzoic acid], the melting point was 157 to 159 °C.
The compound `CC(C)OC(=O)OC(C)OC(=O)c1ccc(CN(C)c2nc(-c3ccc(OCc4ccc(C5CCCCC5)cc4)cc3)cs2)cc1` (stereo not shown) [Example 271, 1-isopropoxycarbonyloxyethyl 4-((N-(4-(4-(4-cyclohexylbenzyloxy)phenyl)-2-thiazolyl)-N-methylamino)methyl)benzoate] had a melting point of 76 to 84 °C.
On to `O=C(O)c1cccc(N(CC2CCCCC2)c2nc(-c3cc(Cl)ccc3OCc3ccccc3)cs2)c1` [Example 181, 3-(N-(4-(2-benzyloxy-5-chlorophenyl)-2-thiazolyl)-N-cyclohexylmethylamino)benzoic acid], for which the melting point fell in the range of 98 to 100 °C.
`CC(C)N(c1cccc(C(=O)O)c1)c1nc(-c2ccc(NC(=O)c3ccc(C4CCCCC4)cc3)cc2)cs1` [Example 28, 3-(N-(4-(4-(4-cyclohexylbenzoylamino)phenyl)-2-thiazolyl)-N-isopropylamino)benzoic acid]: the melting point is 230 °C (dec.).
In the case of `CN(c1ccc(C(=O)O)cc1)c1nc(-c2cc(Cl)ccc2OCc2ccccc2)cs1` [Example 151, 4-(N-(4-(2-benzyloxy-5-chlorophenyl)-2-thiazolyl)-N-methylamino)benzoic acid], the melting point lay within 211 to 212 °C.
`CN(Cc1ccc(C2CCCC2)cc1)c1ccc(-c2csc(N(C)Cc3ccc(C(=O)O)cc3)n2)cc1` [Example 212, 4-((N-(4-(4-(N-(4-cyclopentylbenzyl)-N-methylamino)phenyl)-2-thiazolyl)-N-methylamino)methyl)benzoic acid] had a melting point of 181 to 183 °C.
The same measure for `CCCCN(c1ccc(C(=O)O)cc1)c1nc(-c2cc(Cl)ccc2OCc2ccc(C(F)(F)F)cc2)cs1` [Example 182, 4-(N-butyl-N-(4-(5-chloro-2-(4-trifluoromethylbenzyloxy)phenyl)-2-thiazolyl)amino)benzoic acid]: 216 to 218 °C; for `CN(Cc1ccc(C(=O)[O-])cc1)c1nc(-c2ccc(OCc3ccc(C4CCCCC4)cc3)cc2)cs1.[Na+]` [Example 120, sodium 4-((N-(4-(4-(4-cyclohexylbenzyloxy)phenyl)-2-thiazolyl)-N-methylamino)methyl)benzoate]: 250 °C (dec.); for `CN(c1ccc(C(=O)O)cc1)c1nc(-c2ccc(NCc3ccc(C4CCCCC4)cc3)cc2)cs1.O=S(=O)(O)O`: 239 °C (dec.).
